In patent US20240199598A1 (MITOIMMUNE THERAPEUTICS INC., priority 2021, published 2024):
“Also recorded” adds a separate entry of the source. Where two headings read alike, the source gives them in different places.

How the values were obtained:
[1] = Solubility test of sulfate (Crystalline form III) in various solvents; type: physicochemical; conditions: thermodynamic from solid
Protocol: First, solvent screening was performed for a study on various crystalline forms.

[2] = Oral administration pharmacokinetic test using mice; conditions: mice, oral
[3] = Simulated gastrointestinal fluid solubility test (SGF, FaSSIF, FeSSIF); type: physicochemical; conditions: fed state simulated intestinal fluid (FeSSIF), 37 °C, pH 4.98, fessif, thermodynamic from solid
Protocol: As simulated gastrointestinal fluid media (Biorelevant dissolution media) used for environment assessment in the simulated gastrointestinal tract, simulated gastric fluid (SGF), fasted state simulated intestinal fluid (FaSSIF), and fed state simulated intestinal fluid (FeSSIF) were used, and a detailed description of the test is as follows.
All vials were placed on a hot plate stirrer and maintained while stirring at 37° C. and 700 rpm. […] After mixing at 37° C. for 24 hours, 300 μL of the suspension was separated from each vial and analyzed.
The analysis sample was centrifuged at 14000 rpm for 5 minutes, and then the supernatant was diluted 10-fold with ACN:H2O (7/3, v/v) and analyzed by ultra-performance liquid chromatography (UPLC).

[4] = Physicochemical stability test of free form and 5 salts (60° C., 40° C./75% humidity, light); conditions: for Final purity: HPLC
Protocol: In the case of a light stability test, the vial was stored in a light stability test chamber while being not closed with a lid, and exposed to a total illuminance of 1.2 million lux-hr. A vial light-shielded with aluminum foil was used as an experimental control (Dark control). For stability assessment, state assessment by visual observation, purity assessment using HPLC, and crystalline form assessment using XRPD were conducted, and results thereof are shown in Table 7. […] In FIGS. 19 to 30, “Light” represents light irradiation condition results.

O=S1(=O)CCN(Cc2cc(NC3CCOCC3)c3[nH]c(-c4ccccc4)cc3c2)CC1 [Sulfate]
solubility ([1]; aqueous with cosolvent or surfactant or cyclodextrin, Acetic acid-H2O (1:1), 25° C., read-out: Solubility): 196000 to 295000 µg/mL | solubility ([1]; aqueous with cosolvent or surfactant or cyclodextrin, Acetic acid-H2O (1:1), 50° C., read-out: Solubility): 300000 to 599000 µg/mL | solubility ([1]; aqueous with cosolvent or surfactant or cyclodextrin, Acetone-H2O (1:2), 25° C., read-out: Solubility): 9000 to 19000 µg/mL | solubility ([1]; aqueous with cosolvent or surfactant or cyclodextrin, Acetone-H2O (1:2), 50° C., read-out: Solubility): 37000 to 75000 µg/mL | solubility ([1]; aqueous with cosolvent or surfactant or cyclodextrin, MeOH/H2O = 1:1(v/v), 25° C., read-out: Solubility): 2000 to 3000 µg/mL | solubility ([1]; aqueous with cosolvent or surfactant or cyclodextrin, MeOH/H2O = 1:1(v/v), 50° C., read-out: Solubility): 9000 to 19000 µg/mL | solubility ([1]; aqueous with cosolvent or surfactant or cyclodextrin, in MeOH/H2O (1:1 (v:v)) and acetone/water (1:1 (v/v)), read-out: Solubility (good)): 5000 to 40000 µg/mL | solubility ([1]; organic solvent or mixture, 1-Butanol, 25° C., read-out: Solubility): < 2000 µg/mL | solubility ([1]; organic solvent or mixture, 1-Butanol, 50° C., read-out: Solubility): < 2000 µg/mL | solubility ([1]; organic solvent or mixture, 2-MeTHF, 25° C., read-out: Solubility): < 2000 µg/mL | solubility ([1]; organic solvent or mixture, 2-MeTHF, 50° C., read-out: Solubility): < 2000 µg/mL | solubility ([1]; organic solvent or mixture, ACN, 25° C., read-out: Solubility): < 2000 µg/mL | solubility ([1]; organic solvent or mixture, ACN, 50° C., read-out: Solubility): < 2000 µg/mL | solubility ([1]; organic solvent or mixture, Acetone, 25° C., read-out: Solubility): < 2000 µg/mL | solubility ([1]; organic solvent or mixture, Acetone, 50° C., read-out: Solubility): < 2000 µg/mL | solubility ([1]; organic solvent or mixture, CHCl3, 25° C., read-out: Solubility): < 2000 µg/mL | solubility ([1]; organic solvent or mixture, CHCl3, 50° C., read-out: Solubility): < 2000 µg/mL | solubility ([1]; organic solvent or mixture, DMF, 25° C., read-out: Solubility): 202000 to 302000 µg/mL | solubility ([1]; organic solvent or mixture, DMF, 50° C., read-out: Solubility): 304000 to 608000 µg/mL | solubility ([1]; organic solvent or mixture, DMSO, 25° C., read-out: Solubility): 158000 to 210000 µg/mL | solubility ([1]; organic solvent or mixture, DMSO, 50° C., read-out: Solubility): 301000 to 602000 µg/mL | solubility ([1]; organic solvent or mixture, EtOAc, 25° C., read-out: Solubility): < 2000 µg/mL | solubility ([1]; organic solvent or mixture, EtOAc, 50° C., read-out: Solubility): < 2000 µg/mL | solubility ([1]; organic solvent or mixture, EtOH, 25° C., read-out: Solubility): < 2000 µg/mL | solubility ([1]; organic solvent or mixture, EtOH, 50° C., read-out: Solubility): < 2000 µg/mL | solubility ([1]; organic solvent or mixture, Heptane, 25° C., read-out: Solubility): < 2000 µg/mL | solubility ([1]; organic solvent or mixture, Heptane, 50° C., read-out: Solubility): < 2000 µg/mL | solubility ([1]; organic solvent or mixture, IPA, 25° C., read-out: Solubility): < 2000 µg/mL | solubility ([1]; organic solvent or mixture, IPA, 50° C., read-out: Solubility): < 2000 µg/mL | solubility ([1]; organic solvent or mixture, MEK, 25° C., read-out: Solubility): < 2000 µg/mL | solubility ([1]; organic solvent or mixture, MEK, 50° C., read-out: Solubility): < 2000 µg/mL | solubility ([1]; organic solvent or mixture, MIBK, 25° C., read-out: Solubility): < 2000 µg/mL | solubility ([1]; organic solvent or mixture, MIBK, 50° C., read-out: Solubility): < 2000 µg/mL | solubility ([1]; organic solvent or mixture, MTBE, 25° C., read-out: Solubility): < 2000 µg/mL | solubility ([1]; organic solvent or mixture, MTBE, 50° C., read-out: Solubility): < 2000 µg/mL | solubility ([1]; organic solvent or mixture, MeOH, 25° C., read-out: Solubility): < 2000 µg/mL | solubility ([1]; organic solvent or mixture, MeOH, 50° C., read-out: Solubility): 2000 to 3000 µg/mL | solubility ([1]; organic solvent or mixture, NMP, 25° C., read-out: Solubility): 156000 to 208000 µg/mL | solubility ([1]; organic solvent or mixture, NMP, 50° C., read-out: Solubility): 202000 to 304000 µg/mL | solubility ([1]; organic solvent or mixture, THF, 25° C., read-out: Solubility): < 2000 µg/mL | solubility ([1]; organic solvent or mixture, THF, 50° C., read-out: Solubility): < 2000 µg/mL | solubility ([1]; organic solvent or mixture, Toluene, 25° C., read-out: Solubility): < 2000 µg/mL | solubility ([1]; organic solvent or mixture, Toluene, 50° C., read-out: Solubility): < 2000 µg/mL | solubility ([1]; organic solvent or mixture, iPrOAc, 25° C., read-out: Solubility): < 2000 µg/mL | solubility ([1]; organic solvent or mixture, iPrOAc, 50° C., read-out: Solubility): < 2000 µg/mL | solubility ([1]; organic solvent or mixture, in DMF, NMP, DMSO and acetic acid/water (1:1 (v:v)), read-out: Solubility (excellent)): ≥ 150000 µg/mL | solubility ([1]; organic solvent or mixture, in methanol, ethanol, isopropanol, 1-butanol, acetonitrile, acetone, MEK, MIBK, ethyl acetate, isopropyl acetate, MTBE, tetrahydrofuran, chloroform, toluene, heptane and water, read-out: Solubility (low)): ≤ 5000 µg/mL | solubility ([1]; Water, 25° C., read-out: Solubility): < 2000 µg/mL | solubility ([1]; Water, 50° C., read-out: Solubility): < 2000 µg/mL | Cmax ([2]; 10 mg/kg): 3154.8 ng/mL | t½ ([2]; 10 mg/kg): 4.0 h | AUClast ([2]; 10 mg/kg, listed as sulfate of the compound of Chemical Formula 1, 10 mg/kg): 11499.35 ng·h/mL | Pharmacokinetic test, t½ ([2]; summary Table 9): 4 h | solubility at 24 h ([3]; FeSSIF (pH = 4.98), 37° C., after 24 hours, read-out: Solubility): 130 µg/mL | solubility at 24 h ([3]; summary Table 9, read-out: Stimulated gastrointestinal fluid solubility, FeSSIF): 130 µg/mL | Assay ([4]; 1.2 million lux-hr): 104.98% | Purity change ([4]; 1.2 million lux-hr): +0.14% | XRPD patterns ([4]; 1.2 million lux-hr): Pattern 2-I | Final purity ([4]; 1.2 million lux-hr): 99.87% | Appearance ([4]; 40° C./75% RH, 1 w): White powder | Assay ([4]; 40° C./75% RH, 1 w): 109.86% | Purity change ([4]; 40° C./75% RH, 1 w): −0.43% | XRPD patterns ([4]; 40° C./75% RH, 1 w): Pattern 2-I | Final purity ([4]; 40° C./75% RH, 1 w): 99.30% | Chemical stability (purity change %/1 w), 40° C./75% RH ([4]; 40° C./75% RH, 1 w, summary Table 9): −0.43% | Appearance ([4]; 60° C., 1 w): White powder | Assay ([4]; 60° C., 1 w): 110.59% | Purity change ([4]; 60° C., 1 w): +0.1% | XRPD patterns ([4]; 60° C., 1 w): Pattern 2-I | Final purity ([4]; 60° C., 1 w): 99.83% | Chemical stability (purity change %/1 w), 60° C. ([4]; 60° C., 1 w, summary Table 9): 0.1% | Sensitivity to heat, humidity and light conditions (in words) ([4]; 60° C., 40° C./75% humidity, 1.2 million lux-hr, listed as sulfate of the compound of Chemical Formula 1): sensitive under a humidity condition; also recorded: comparable results to the free form of the compound of Chemical Formula 1 under high-temperature and light stability conditions, except for a humidity condition | Assay ([4]; Dark control): 105.93% | Purity change ([4]; Dark control): +0.02% | XRPD patterns ([4]; Dark control): Pattern 2-I | Final purity ([4]; Dark control): 99.75% | Chemical stability (purity change %/1 w), Light stability ([4]; light stability, summary Table 9): 0.14%
